# System: 616215-338-R-J1-PDC complex spheroid viability
# Experiment: Anticancer human tumor 616215-338-R-J1-PDC patient-derived colon adenocarcinoma cell line growth inhibition [RAS]
# Settings: for IC50: curve of first compound; for viability, T/C: stronger effect = lower value
# Source text: RAS pathway inhibitors in Combinations in Complex Spheroids
# A high-throughput screen of multi-cell type tumor spheroids was designed to identify active combinations of RAS pathway inhibitors and targeted small molecules. Complex spheroids include a stromal component modeled by human endothelial cells (HUVEC) and fibroblasts modeled by human mesenchymal stem cells (MSCs). The concentration ranges selected for each drug and investigational agent were based upon clinically achievable concentrations if the clinical Cmax of the agent was known.
# Compounds. The drugs and investigational agents: abemaciclib (NSC768073), cobimetinib (NSC768068), divarasib (GDC6063, NSC841802), docetaxel (NSC628503), GDC-1971 (RLY-1971, NSC841576), gemcitabine (NSC613327), inavolisib (NSC800729), ipatasertib (NSC767898), KB-0742 (NSC834161), MRTX-1133 (NSC836407), osimertinib (NSC779217), RMC-4630 (NSC839698), RMC-6236 (NSC851965), RMC-6291 (NSC852671), Ro-3306 (NSC812927), sapanisertib (NSC764658), SN-38 (NSC673596), staurosporine (NSC755774), SY5609 (NSC837396), and tovorafenib (DAY101, NSC766906), were obtained from the National Cancer Institute (NCI) Developmental Therapeutics Program Chemical Repository. The FDA-approved anticancer drug set is available from the NCI Developmental Therapeutics Program. […] The stock solutions were prepared in dimethyl sulfoxide (DMSO, Sigma-Aldrich, St. Louis, MO, cat. D2650) at 800-fold the tested concentration and stored at -70 degrees C prior to their use. All drugs and investigational agents were tested over a range starting from a high concentration at or near the clinical Cmax and decreasing in half-log increments. If the clinical Cmax for an agent had not been determined, the highest concentration tested was 10 microM.
# Cell Culture. All cells were maintained in an incubator at 37 degrees C and 5% CO2 with 95% humidity. The PDC lines were cultured according to standard operating procedures established by the NCI PDMR. All PDCs were thawed and cultured in Matrigel-coated flasks prepared with a working solution of 1X Ham's F-12 nutrient mix, without supplementation (Invitrogen, Waltham, MA, cat. 11765054), 100 U/mL penicillin-streptomycin (Invitrogen, cat. 15140122), and 2.5% Matrigel (Corning Inc., Corning, NY, cat. 354248) for the first three passages. The 362531-283-R-J2-PDC and 782815-120-R-J1-PDC lines were cultured in 6C/Colon 1B media, which includes advanced DMEM/F-12 (Thermo Fisher Scientific, cat. 12634028), 10 mM HEPES (Thermo Fisher Scientific, cat. 15630080), 1X GlutaMAX supplement (Thermo Fisher Scientific, cat. 35050061), 0.1 mg/mL primocin (InvivoGen, San Diego, CA, cat. ant-pm-2), 10% defined fetal bovine serum, heat inactivated (HyClone Laboratories Inc., Logan, UT, cat. SH30070.03HI), 50% L-WRN conditioned media (ATCC, cat. CRL-3276), 1.25 mM N-Acetyl-L-cysteine (Sigma-Aldrich, cat. A9165), 10 mM nicotinamide (Sigma-Aldrich, cat. N0636), 1X B-27 supplement (Thermo Fisher Scientific, cat. 17504044), 1X N-2 supplement (Thermo Fisher Scientific, cat. 17502048), 50 ng/mL human EGF (Thermo Fisher Scientific, cat. PHG0311), and 10 microM Y-27632 dihydrochloride (Tocris Bioscience, cat. 1254). The K12877-001-R-J1-PDC line was cultured in 6I media, which includes all 6C/Colon 1B media plus 10 ng/mL human FGF-10 (PeproTech, cat. 100-26), 1 ng/mL human FGF-2 (PeproTech, cat. 100-18B), 1 µM prostaglandin E2 (Tocris Bioscience, cat. 2296), […] hydrocortisone (Sigma-Aldrich, cat. H4001), and […] bovine insulin (Sigma-Aldrich, cat. I6634). The K86415-001-R-J1-PDC line was cultured in 6D media, which includes all 6C/Colon 1B media components minus the L-WRN conditioned media. The 485176-168-R4-J1-PDC was cultured in PANC media, which includes all 6C/Colon 1B media plus 100 ng/mL human FGF-10 (PeproTech, cat. 100-26), 500 nM SB-431542 (Selleckchem, cat. S1067), and 10 nM gastrin (Tocris Bioscience, cat. 3006). […]
# 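Note: spheroids exposed to agents for seven days before viability readout.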
# 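Throughout, for viability, T/C: 100% = DMSO vehicle control viability.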
smiles,measurement,setting,value
CC1(C)CCC(Nc2ncc(C(F)(F)F)c(-c3c[nH]c4c(P(C)(C)=O)c(C#N)ccc34)n2)CN1 (configuration not stated) + C#Cc1c(F)ccc2cc(O)cc(-c3ncc4c(N5CC6CCC(C5)N6)nc(OCC56CCCN5CC(F)C6)nc4c3F)c12,IC50,second compound 0.0316 µM,19 nM
same,IC50,second compound 0.1 µM,13.4 nM
same,IC50,second compound 0.316 µM,18.9 nM
same,IC50,second compound 1 µM,10.7 nM
same,IC50,second compound 3.16 µM,8.28 nM
same,IC50,second compound 10 µM,5.91 nM
same,"viability, T/C","second compound 0.0316 µM, first compound 0.000949 µM",103%
same,"viability, T/C","second compound 0.0316 µM, first compound 0.003 µM",112%
same,"viability, T/C","second compound 0.0316 µM, first compound 0.00949 µM",70.1%
same,"viability, T/C","second compound 0.0316 µM, first compound 0.03 µM",37.4%
same,"viability, T/C","second compound 0.0316 µM, first compound 0.0949 µM",35.9%
same,"viability, T/C","second compound 0.0316 µM, first compound 0.3 µM",36.8%
same,"viability, T/C","second compound 0.1 µM, first compound 0.000949 µM",107%
same,"viability, T/C","second compound 0.1 µM, first compound 0.003 µM",105%
same,"viability, T/C","second compound 0.1 µM, first compound 0.00949 µM",56.7%
same,"viability, T/C","second compound 0.1 µM, first compound 0.03 µM",37.7%
same,"viability, T/C","second compound 0.1 µM, first compound 0.0949 µM",31.8%
same,"viability, T/C","second compound 0.1 µM, first compound 0.3 µM",28.2%
same,"viability, T/C","second compound 0.316 µM, first compound 0.000949 µM",109%
same,"viability, T/C","second compound 0.316 µM, first compound 0.003 µM",105%
same,"viability, T/C","second compound 0.316 µM, first compound 0.00949 µM",66.5%
same,"viability, T/C","second compound 0.316 µM, first compound 0.03 µM",40.5%
same,"viability, T/C","second compound 0.316 µM, first compound 0.0949 µM",32.3%
same,"viability, T/C","second compound 0.316 µM, first compound 0.3 µM",31.9%
same,"viability, T/C","second compound 1 µM, first compound 0.000949 µM",117%
same,"viability, T/C","second compound 1 µM, first compound 0.003 µM",108%
same,"viability, T/C","second compound 1 µM, first compound 0.00949 µM",52.1%
same,"viability, T/C","second compound 1 µM, first compound 0.03 µM",31.2%
same,"viability, T/C","second compound 1 µM, first compound 0.0949 µM",27.8%
same,"viability, T/C","second compound 1 µM, first compound 0.3 µM",31.2%
same,"viability, T/C","second compound 3.16 µM, first compound 0.000949 µM",109%
same,"viability, T/C","second compound 3.16 µM, first compound 0.003 µM",89.3%
same,"viability, T/C","second compound 3.16 µM, first compound 0.00949 µM",45.8%
same,"viability, T/C","second compound 3.16 µM, first compound 0.03 µM",27.8%
same,"viability, T/C","second compound 3.16 µM, first compound 0.0949 µM",34.1%
same,"viability, T/C","second compound 3.16 µM, first compound 0.3 µM",36.7%
same,"viability, T/C","second compound 10 µM, first compound 0.000949 µM",96.5%
same,"viability, T/C","second compound 10 µM, first compound 0.003 µM",69.3%
same,"viability, T/C","second compound 10 µM, first compound 0.00949 µM",37.5%
same,"viability, T/C","second compound 10 µM, first compound 0.03 µM",24.7%
same,"viability, T/C","second compound 10 µM, first compound 0.0949 µM",32.5%
same,"viability, T/C","second compound 10 µM, first compound 0.3 µM",31.7%

# Source: PubChem BioAssay AID2060898 (Molecular Pharmacology Branch, DTP, NCI, 2025)
